Measurements reported in ChEMBL document CHEMBL6083251, “"Pseudosubstrate Envelope"/Free Energy Perturbation-Guided Design and Mechanistic Investigations of Benzothiazole HIV Capsid Modulators with High Ligand Efficiency” (J Med Chem, 2024).
pEC50, pKd: −log10 of the molar value. Calls of active or inactive are those of the source. No cut-off for these calls is given here.

Legend:
[1] = biological target: Structural capsid protein (Human immunodeficiency virus 1) (UniProt Q76129); assay: Binding affinity to hexameric HIV-1 NL4.3 capsid protein assessed as residence time by SPR assay; conditions: filed as modulator
Sequence of Structural capsid protein (Human immunodeficiency virus 1) (Q76129 as listed by the source): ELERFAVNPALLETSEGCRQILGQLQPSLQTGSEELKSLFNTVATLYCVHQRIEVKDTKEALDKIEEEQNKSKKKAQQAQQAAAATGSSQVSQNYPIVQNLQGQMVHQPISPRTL

[2] = Metabolic stability in human liver microsomes assessed as intrinsic clearance at 1 uM incubated for 60 mins by LC-MS/MS analysis; format: ADME, Microsome; conditions: read-out: CLH
[3] = biological target: Structural capsid protein (Human immunodeficiency virus 1) (UniProt Q76129); assay: Binding affinity to hexameric HIV-1 NL4.3 capsid protein assessed as dissociation rate (Koff) by SPR assay; conditions: filed as modulator
[4] = biological target: Structural capsid protein (Human immunodeficiency virus 1) (UniProt Q76129); assay: Binding affinity to monomeric HIV-1 NL4.3 capsid protein assessed as residence time by SPR assay; conditions: filed as modulator
[5] = biological target: Structural capsid protein (Human immunodeficiency virus 1) (UniProt Q76129); assay: Binding affinity to monomeric HIV-1 NL4.3 capsid protein assessed as dissociation rate (Koff) by SPR assay; conditions: filed as modulator
[6] = test system: MT4; assay: Cytotoxicity against human MT4 cells assessed as reduction in cell viability incubated for 5 days by spectrophotometric based MTT assay; format: functional; conditions: MT4, 120 h, time 5 day
[7] = test system: Human immunodeficiency virus 2; assay: Anti-HIV activity against HIV-2 ROD infected in human MT-4 cells assessed as protection against virus-induced cytopathic effect incubated for 5 days by spectrophotometric based MTT assay; format: functional, organism-based; conditions: Human immunodeficiency virus 2, ROD, MT4, 120 h
[8] = Selectivity index, ratio of CC50 for human MT4 cells to EC50 for wild type HIV-1 IIIB infected in human MT4 cells; format: toxicity, cell-based; conditions: read-out: Selectivity Index
[9] = test system: Human immunodeficiency virus 1; assay: Anti-HIV activity against wild type HIV-1 IIIB infected in human MT4 cells assessed as protection against virus-induced cytopathic effect incubated for 5 days by spectrophotometric based MTT assay; format: functional, organism-based; conditions: Human immunodeficiency virus 1, IIIB, MT4, 120 h
[10] = Selectivity index, ratio of CC50 for human MT4 cells to EC50 for HIV-2 ROD infected in human MT-4 cells; format: toxicity, cell-based; conditions: read-out: Selectivity Index
[11] = Selectivity ratio of EC50 for wild type HIV-1 IIIB infected in human MT4 cells to EC50 for HIV-2 ROD infected in human MT-4 cells assessed as protection against virus-induced cytopathic effect incubated for 5 days by spectrophotometric based MTT assay; format: functional; conditions: time 5 day
[12] = Metabolic stability in human liver microsomes assessed as half life at 1 uM incubated for 60 mins by LC-MS/MS analysis; format: ADME, Microsome
[13] = test system: Human immunodeficiency virus 1; assay: Anti-HIV activity against HIV-1 IIIB infected in human MT4 cells assessed as protection against virus-induced cytopathic effect incubated for 5 days by spectrophotometric based MTT assay; conditions: Human immunodeficiency virus 1, IIIB, MT4, 120 h
[14] = biological target: Human immunodeficiency virus type 1 reverse transcriptase (Human immunodeficiency virus 1) (UniProt Q72547); conditions: dose 10.0 nM, time 1.0 hrs
[15] = biological target: Structural capsid protein (Human immunodeficiency virus 1) (UniProt Q76129); assay: Binding affinity to HIV-1 hexameric capsid protein assessed as reduction in CPSF6 binding to capsid protein by competition assay based SPR analysis; conditions: filed as modulator
[16] = test system: Human immunodeficiency virus 1; assay: Antiviral activity against pseudotyped HIV-1 expressing luciferase-reporter transfected in HEK293T cells assessed as increase in p24 level in progeny virions by ELISA analysis; format: functional, organism-based
[17] = test system: Human immunodeficiency virus 1; assay: Antiviral activity against pseudotyped HIV-1 expressing luciferase-reporter transfected in HEK293T cells assessed as viral inhibition at late stage incubated for 48 hrs by Single-round infection assay; format: functional, organism-based
[18] = test system: Human immunodeficiency virus 1; assay: Antiviral activity against pseudotyped HIV-1 expressing luciferase-reporter transfected in HEK293T cells assessed as viral inhibition at early stage incubated for 48 hrs by Single-round infection assay; format: functional, organism-based
[19] = biological target: T1, Structural capsid protein (Human immunodeficiency virus 1, UniProt Q76129); assay: Binding affinity to hexameric HIV-1 NL4.3 capsid protein assessed as dissociation constant by SPR assay
T1 sequence (Q76129 whole entry): as the sequence (Q76129 as listed by the source) above

[20] = biological target: Structural capsid protein (Human immunodeficiency virus 1) (UniProt Q76129); assay: Binding affinity to HIV-1 hexameric capsid protein assessed as reduction in NUP153 binding to capsid protein by competition assay based SPR analysis; conditions: filed as modulator
[21] = biological target: Human immunodeficiency virus type 1 reverse transcriptase (Human immunodeficiency virus 1) (UniProt Q72547); assay: Inhibition of HIV1 reverse transcriptase at 24 nM incubated for 1 hr by ELISA analysis
[22] = biological target: T1, Structural capsid protein; assay: Binding affinity to monomeric HIV-1 NL4.3 capsid protein assessed as dissociation constant by SPR assay
[23] = biological target: Human immunodeficiency virus type 1 reverse transcriptase (Human immunodeficiency virus 1) (UniProt Q72547); assay: Inhibition of HIV1 reverse transcriptase at 13 nM incubated for 1 hr by ELISA analysis
[24] = biological target: Human immunodeficiency virus type 1 reverse transcriptase (Human immunodeficiency virus 1) (UniProt Q72547); assay: Inhibition of HIV1 reverse transcriptase at 20 nM incubated for 1 hr by ELISA analysis

Compound	CC50 [6]	pEC50 [7]	selectivity ratio [8]	pEC50 [9]	selectivity ratio [10]	Ratio EC50 [11]	other results
COc1ccc(N(C)C(=O)[C@H](Cc2ccccc2)NC(=O)CN2CCN(S(=O)(=O)c3ccc(N)cc3)CC2=O)cc1	114000 nM	7.87					TIME [1]: 0.0138 h; CLint scaled at 1 µM [2]: 344 mL/min/kg; K [3]: 2.01 10^-2/s; TIME [4]: 0.00118 h; K [5]: 2.34 10^-1/s
CN(C(=O)[C@H](Cc1cc(F)cc(F)c1)NC(=O)Cc1c[nH]c2ccc(F)cc12)c1ccc2scnc2c1	25500 nM	6.84	2510	7.99	177	0.07	
Cc1[nH]c2ccc(Cl)cc2c1CC(=O)N[C@@H](Cc1cc(F)cc(F)c1)C(=O)N(C)c1ccc2scnc2c1	26400 nM	6.20	133	6.70	41.7	0.31	
CN(C(=O)[C@H](Cc1cc(F)cc(F)c1)NC(=O)Cc1c[nH]c2cc(Br)ccc12)c1ccc2scnc2c1	23300 nM	7.16	848	7.56	339	0.4	
CN(C(=O)[C@H](Cc1cc(F)cc(F)c1)NC(=O)Cc1c[nH]c2cc(Cl)ccc12)c1ccc2scnc2c1	24800 nM	6.90	669	7.43	197	0.29	
COC(=O)c1c(C)ccn1CC(=O)N[C@@H](Cc1cc(F)cc(F)c1)C(=O)N(C)c1ccc2scnc2c1	127000 nM	5.72	124	5.99	66.3	0.53	
Cc1[nH]c2ccccc2c1CC(=O)N[C@@H](Cc1ccccc1)C(=O)N(C)c1ccccc1	134000 nM	5.55		5.98			half-life at 1 µM [12]: 0.7 min; TIME [1]: 0.000617 h; CLint scaled at 1 µM [2]: 2110 mL/min/kg; K [3]: 4.48 10^-1/s; TIME [4]: 0.00125 h; K [5]: 2.21 10^-1/s; pEC50 [13]: 6.10
CN(C(=O)[C@H](Cc1cc(F)cc(F)c1)NC(=O)Cc1c[nH]c2cccc(Cl)c12)c1ccc2scnc2c1	24400 nM	5.71	132	6.73	12.7	0.1	
Cc1cc(/C=C/C#N)cc(C)c1Nc1ccnc(Nc2ccc(C#N)cc2)n1							inhibition [14]: Active
CN(C(=O)[C@H](Cc1cc(F)cc(F)c1)NC(=O)Cc1c[nH]c2ccc(N)cc12)c1ccc2scnc2c1	192000 nM	6.64	16100	7.92	831	0.05	half-life at 1 µM [12]: 68.5 min; CLint scaled at 1 µM [2]: 20.2 mL/min/kg; Activity [15]: Active; Activity [16]: inactive; Activity [17]: Active; Activity [18]: Active; pKd [19]: 7.02; Activity [20]: Active; inhibition [21]: inactive; pKd [22]: 6.71
CN(C(=O)[C@H](Cc1cc(F)cc(F)c1)NC(=O)Cc1c[nH]c2ccc([N+](=O)[O-])cc12)c1ccc2scnc2c1	28400 nM	6.89	4460	8.20	220	0.05	Activity [15]: Active; Activity [16]: Active; Activity [17]: Active; Activity [18]: Active; inhibition [23]: inactive; pKd [19]: 7.06; Activity [20]: Active; pKd [22]: 6.82
CN(C(=O)[C@H](Cc1cc(F)cc(F)c1)NC(=O)Cc1c[nH]c2cc(F)c(F)cc12)c1ccc2scnc2c1	23600 nM	6.69	2410	8.01	116	0.05	Activity [15]: Active; Activity [16]: Active; inhibition [24]: inactive; Activity [17]: Active; Activity [18]: Active; pKd [19]: 6.52; Activity [20]: Active; pKd [22]: 6.57
